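How tested: cells in 96-well plates exposed to compound for 48 hours at five concentrations. The concentration for 50% growth inhibition is given as GI50. TGI denotes the concentration required for complete inhibition of growth.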

Some test systems named below: NCI/ADR-RES ovarian; SN12C renal; TK-10 renal; UACC-62 melanoma; RPMI-8226 leukemia; UO-31 renal; SNB-19 CNS; HL-60(TB) leukemia; M14 melanoma; IGROV1 ovarian.
Holding throughout (assay): growth of human tumour cells (NCI), 48 h

Take `CCCCOCCOCCOC1=CC(=O)c2c(O)ccc(O)c2C1=O`: the TGI in the experiment with NCI/ADR-RES ovarian is 5.14 µM; with SN12C renal, 3.22 µM; in the experiment on TK-10 renal it was 5.28 µM; with UACC-62 melanoma, 3.64 µM; with RPMI-8226 leukemia, greater than 10 µM; in the experiment with UO-31 renal it was 2.93 µM. Further, the TGI with SNB-19 CNS was 3.19 µM; in the experiment with HL-60(TB) leukemia it was 6 µM; with M14 melanoma, 2.85 µM; in the experiment on IGROV1 ovarian, 3.38 µM.

With `NS(=O)(=O)c1ccc(NC(=O)N/N=C/c2ccccc2O)cc1`, the TGI with NCI/ADR-RES ovarian, in the experiment on SN12C renal, in the experiment on TK-10 renal, in the experiment with UACC-62 melanoma, with RPMI-8226 leukemia and with UO-31 renal was greater than 100 µM in each case. Besides, the TGI in the experiment on SNB-19 CNS, with HL-60(TB) leukemia, in the experiment with M14 melanoma and with IGROV1 ovarian was greater than 100 µM throughout.

`COC1(CC[C@@H](C)COC2OC(CO)C(O)C(O)C2O)O[C@H]2C[C@H]3[C@@H]4CC=C5C[C@@H](OC6OC(CO)C(OC7OC(C)C(O)C(O)C7O)C(O)C6OC6OC(C)C(O)C(O)C6O)CC[C@]5(C)[C@H]4CC[C@]3(C)[C@H]2[C@@H]1C` (some centres undefined): the GI50 in the experiment on NCI/ADR-RES ovarian is 2590 nM; in the experiment on SN12C renal it was 2870 nM; with TK-10 renal, 8.04 µM; in the experiment on UACC-62 melanoma, 2310 nM; in the experiment on RPMI-8226 leukemia, 3.83 µM; in the experiment with UO-31 renal it was 1690 nM. In addition, the GI50 in the experiment on SNB-19 CNS was 2460 nM; in the experiment with HL-60(TB) leukemia, 3.47 µM; in the experiment on M14 melanoma, 1580 nM; with IGROV1 ovarian, 2500 nM. The TGI with NCI/ADR-RES ovarian was determined as 6.19 µM; in the experiment with TK-10 renal, 23.1 µM; with UACC-62 melanoma it was 16 µM; with RPMI-8226 leukemia, 13.7 µM; in the experiment with UO-31 renal, 5.2 µM; in the experiment with SNB-19 CNS it was 6.54 µM. Besides, the values for the TGI in the experiment with HL-60(TB) leukemia, in the experiment with M14 melanoma and with IGROV1 ovarian were 13.4 µM, 8.42 µM and 7.16 µM, respectively.

As to `CC(=O)OI1NC(=O)c2ccccc21`, the TGI in the experiment with NCI/ADR-RES ovarian, with SN12C renal, in the experiment on TK-10 renal, in the experiment with UACC-62 melanoma, with RPMI-8226 leukemia and in the experiment on UO-31 renal was greater than 100 µM throughout. In addition, the TGI with SNB-19 CNS, in the experiment with HL-60(TB) leukemia, in the experiment on M14 melanoma and in the experiment on IGROV1 ovarian was greater than 100 µM throughout.

As for `O=C(CNc1ccccn1)Nn1cnc2ccc(S(=O)(=O)Nc3ccccn3)cc2c1=O`, the TGI with NCI/ADR-RES ovarian, with SN12C renal, in the experiment on TK-10 renal, with UACC-62 melanoma, in the experiment with RPMI-8226 leukemia and with UO-31 renal was greater than 100 µM in each case. Besides, the TGI in the experiment with SNB-19 CNS, in the experiment on HL-60(TB) leukemia, with M14 melanoma and in the experiment with IGROV1 ovarian was greater than 100 µM throughout.

As to `CN(C)CCN(C)P12(Oc3ccccc3O1)Oc1c(Cl)c(Cl)c(Cl)c(Cl)c1O2`, the TGI with NCI/ADR-RES ovarian, with SN12C renal, with TK-10 renal, in the experiment with UACC-62 melanoma, with RPMI-8226 leukemia and with UO-31 renal was greater than 100 µM in each case. Moreover, the TGI was greater than 100 µM in the experiment with SNB-19 CNS, 40.9 µM in the experiment on HL-60(TB) leukemia, greater than 100 µM with M14 melanoma and greater than 100 µM in the experiment on IGROV1 ovarian.

For the compound `FC(F)(F)c1ccccc1C1SCC2=Nc3ccccc3CN21` (centres undefined), the TGI in the experiment with NCI/ADR-RES ovarian was 35.7 µM; with SN12C renal, greater than 100 µM; in the experiment with TK-10 renal it was 29.9 µM; with UACC-62 melanoma, 26.1 µM; in the experiment on RPMI-8226 leukemia, greater than 100 µM; with UO-31 renal it was 24.1 µM. Besides, the TGI came to 26.3 µM in the experiment with SNB-19 CNS, 66.2 µM with HL-60(TB) leukemia, 24.6 µM in the experiment on M14 melanoma and 29.7 µM with IGROV1 ovarian.

Turning to `COc1ccc(C(O)/C(=N/N)c2nc3ccc(Cl)cc3[nH]c2=O)cc1` (centres undefined), the TGI with NCI/ADR-RES ovarian, in the experiment with SN12C renal, in the experiment with TK-10 renal, with UACC-62 melanoma, in the experiment on RPMI-8226 leukemia and in the experiment on UO-31 renal was greater than 100 µM throughout. Besides, the TGI in the experiment with SNB-19 CNS, in the experiment on HL-60(TB) leukemia, in the experiment with M14 melanoma and in the experiment with IGROV1 ovarian was greater than 100 µM throughout.

As to `O=C1N/C(=N\N=C\c2ccccc2)C(c2ccccc2)O1` (centres undefined), the TGI was greater than 100 µM with NCI/ADR-RES ovarian; greater than 100 µM in the experiment on SN12C renal; greater than 100 µM with TK-10 renal; greater than 100 µM in the experiment on UACC-62 melanoma; greater than 100 µM in the experiment on RPMI-8226 leukemia; 33.5 µM in the experiment on UO-31 renal. The TGI in the experiment with SNB-19 CNS, in the experiment with HL-60(TB) leukemia, in the experiment on M14 melanoma and in the experiment on IGROV1 ovarian was greater than 100 µM each time.

Turning to `CSc1ncnc2c1cnn2Cc1cn(COCCO)nn1`, the TGI in the experiment with NCI/ADR-RES ovarian, in the experiment on SN12C renal, in the experiment with TK-10 renal, in the experiment with UACC-62 melanoma, in the experiment with RPMI-8226 leukemia and in the experiment with UO-31 renal was greater than 100 µM in each case. Besides, the TGI in the experiment on SNB-19 CNS, in the experiment on HL-60(TB) leukemia, in the experiment with M14 melanoma and in the experiment with IGROV1 ovarian was greater than 100 µM throughout.

On to `C[C@]12C=CC(=O)C=C1CC[C@@H]1[C@@H]2CC[C@@]2(C)[C@H]1CC[C@]2(O)C(N)=O`, for which the TGI in the experiment on NCI/ADR-RES ovarian, with SN12C renal, with TK-10 renal, with UACC-62 melanoma, in the experiment with RPMI-8226 leukemia and in the experiment with UO-31 renal was greater than 100 µM throughout. Further, the TGI in the experiment with SNB-19 CNS, with HL-60(TB) leukemia, in the experiment with M14 melanoma and with IGROV1 ovarian was greater than 100 µM throughout.

On to `CCOC(=O)C(NC(=O)OCc1ccccc1)C(=O)O` (centres undefined), for which the TGI with NCI/ADR-RES ovarian, in the experiment with SN12C renal, in the experiment on TK-10 renal, in the experiment on UACC-62 melanoma, with RPMI-8226 leukemia and with UO-31 renal was greater than 100 µM throughout. The TGI in the experiment on SNB-19 CNS, with HL-60(TB) leukemia, with M14 melanoma and in the experiment on IGROV1 ovarian was greater than 100 µM each time.

For the compound `CC1(C)CCN2C(=O)C34CCCC3CC21S4` (centres undefined), the TGI in the experiment with NCI/ADR-RES ovarian, in the experiment with SN12C renal, in the experiment on TK-10 renal, in the experiment with UACC-62 melanoma, with RPMI-8226 leukemia and in the experiment with UO-31 renal was greater than 100 µM in each case. For the same compound, the TGI with SNB-19 CNS, in the experiment with HL-60(TB) leukemia, in the experiment with M14 melanoma and with IGROV1 ovarian was greater than 100 µM in each case.

These data come from PubChem BioAssay (NCI).
